A compilation of properties of binary mixtures (doi:10.1021/acs.jced.9b00769)

Experiment: xn = mol fraction of the nth substance listed
Settings: 100 kPa

CCCCCCCCCCCC[P+](CC)(CC)CC.N#Cc1ccc[n-]1 + OCCN(CCO)CCO
Settings | electrical conductivity [S/m] | viscosity [mPa·s]
293.15 K, x1 = 0.003 | 0.0008 | –
293.15 K, x1 = 0.005 | 0.0012 | –
293.15 K, x1 = 0.007 | 0.0016 | –
293.15 K, x1 = 0.008 | 0.0019 | –
293.15 K, x1 = 0.013 | 0.0027 | –
293.15 K, x1 = 0.017 | 0.0033 | 920
293.15 K, x1 = 0.02 | 0.0036 | –
293.15 K, x1 = 0.025 | 0.0038 | –
293.15 K, x1 = 0.042 | 0.0051 | –
293.15 K, x1 = 0.051 | 0.0053 | 1009
293.15 K, x1 = 0.065 | 0.0056 | –
293.15 K, x1 = 0.08 | 0.0058 | –
293.15 K, x1 = 0.09 | 0.006 | –
293.15 K, x1 = 0.091 | – | 1032
293.15 K, x1 = 0.116 | 0.0062 | –
293.15 K, x1 = 0.117 | – | 1007
293.15 K, x1 = 0.145 | – | 920
293.15 K, x1 = 0.28 | – | 860
293.15 K, x1 = 0.285 | 0.0061 | –
293.15 K, x1 = 0.404 | 0.0069 | –
293.15 K, x1 = 0.512 | 0.0081 | –
293.15 K, x1 = 0.687 | – | 840
293.15 K, x1 = 0.701 | 0.0141 | –
293.15 K, x1 = 0.809 | – | 720
293.15 K, x1 = 1 | 0.0267 | 423
298.15 K, x1 = 0.017 | – | 608
298.15 K, x1 = 0.035 | – | 641
298.15 K, x1 = 0.091 | – | 680
298.15 K, x1 = 0.117 | – | 649
298.15 K, x1 = 0.145 | – | 610
298.15 K, x1 = 0.28 | – | 573
298.15 K, x1 = 0.473 | – | 583
298.15 K, x1 = 0.687 | – | 576
298.15 K, x1 = 1 | – | 310
303.15 K, x1 = 0.017 | – | 396
303.15 K, x1 = 0.051 | – | 418
303.15 K, x1 = 0.091 | – | 435
303.15 K, x1 = 0.117 | – | 423
303.15 K, x1 = 0.145 | – | 403
303.15 K, x1 = 0.207 | – | 389
303.15 K, x1 = 0.28 | – | 379
303.15 K, x1 = 0.473 | – | 395
303.15 K, x1 = 0.687 | – | 395
303.15 K, x1 = 0.809 | – | 353
303.15 K, x1 = 1 | – | 214
313.15 K, x1 = 0.017 | – | 181
313.15 K, x1 = 0.035 | – | 194
313.15 K, x1 = 0.091 | – | 198
313.15 K, x1 = 0.145 | – | 192
313.15 K, x1 = 0.28 | – | 183
313.15 K, x1 = 0.473 | – | 194
313.15 K, x1 = 0.687 | – | 199
313.15 K, x1 = 0.809 | – | 184
313.15 K, x1 = 1 | – | 114

OCCN(CCO)CCO + CCCC[P+](CC)(CC)CC.N#Cc1ccc[n-]1
x2 = 0
Settings | viscosity [mPa·s]
293.15 K | 940
298.15 K | 611
303.15 K | 413
313.15 K | 204

CCCCCCCCCCCC[P+](CCCC)(CCCC)CCCC.N#Cc1ccc[n-]1 + OCCN(CCO)CCO
Settings | electrical conductivity [S/m] | viscosity [mPa·s]
293.15 K, x1 = 0.003 | 0.0006 | –
293.15 K, x1 = 0.004 | 0.0008 | –
293.15 K, x1 = 0.005 | 0.0011 | –
293.15 K, x1 = 0.007 | 0.0014 | –
293.15 K, x1 = 0.01 | 0.0019 | –
293.15 K, x1 = 0.017 | – | 980
293.15 K, x1 = 0.022 | 0.003 | –
293.15 K, x1 = 0.027 | 0.0032 | –
293.15 K, x1 = 0.042 | 0.0036 | –
293.15 K, x1 = 0.054 | 0.0038 | 1054
293.15 K, x1 = 0.075 | 0.0041 | –
293.15 K, x1 = 0.177 | 0.0038 | 1025
293.15 K, x1 = 0.244 | 0.0039 | 970
293.15 K, x1 = 0.325 | 0.0041 | 930
293.15 K, x1 = 0.431 | 0.0043 | 830
293.15 K, x1 = 0.755 | 0.0057 | 680
298.15 K, x1 = 0.017 | – | 654
298.15 K, x1 = 0.054 | – | 680
298.15 K, x1 = 0.096 | – | 690
298.15 K, x1 = 0.121 | – | 690
298.15 K, x1 = 0.177 | – | 680
298.15 K, x1 = 0.244 | – | 646
298.15 K, x1 = 0.431 | – | 569
298.15 K, x1 = 0.538 | – | 532
303.15 K, x1 = 0.035 | – | 435
303.15 K, x1 = 0.096 | – | 452
303.15 K, x1 = 0.121 | – | 450
303.15 K, x1 = 0.177 | – | 450
303.15 K, x1 = 0.244 | – | 432
303.15 K, x1 = 0.431 | – | 391
303.15 K, x1 = 0.538 | – | 370
313.15 K, x1 = 0.017 | – | 205
313.15 K, x1 = 0.035 | – | 205
313.15 K, x1 = 0.054 | – | 208
313.15 K, x1 = 0.121 | – | 216
313.15 K, x1 = 0.177 | – | 219
313.15 K, x1 = 0.244 | – | 211
313.15 K, x1 = 0.431 | – | 200
313.15 K, x1 = 0.538 | – | 194
313.15 K, x1 = 0.755 | – | 182
313.15 K, x1 = 1 | – | 166

OCCN(CCO)CCO + CCCCCCCCCCCC[P+](CC)(CC)CC.N#Cc1ccc[n-]1
x2 = 0
Settings | viscosity [mPa·s]
293.15 K | 940
298.15 K | 611
303.15 K | 413
313.15 K | 204

CCCC[P+](CC)(CC)CC.N#Cc1ccc[n-]1 + OCCN(CCO)CCO
Settings | electrical conductivity, 293.15 K [S/m] | viscosity, 293.15 K [mPa·s] | viscosity, 298.15 K [mPa·s] | viscosity, 303.15 K [mPa·s] | viscosity, 313.15 K [mPa·s]
x1 = 0.002 | 0.0007 | – | – | – | –
x1 = 0.007 | 0.0017 | – | – | – | –
x1 = 0.009 | 0.0022 | – | – | – | –
x1 = 0.018 | 0.0036 | 960 | – | 410 | 188
x1 = 0.023 | 0.0041 | – | – | – | –
x1 = 0.029 | – | – | 633 | 408 | 184
x1 = 0.047 | 0.0055 | – | – | – | –
x1 = 0.059 | 0.0059 | 1010 | 660 | 426 | 191
x1 = 0.089 | 0.0068 | 970 | 636 | 410 | 185
x1 = 0.104 | – | 940 | 614 | 397 | 177
x1 = 0.123 | 0.0077 | – | – | – | –
x1 = 0.223 | – | – | 530 | – | 155
x1 = 0.272 | 0.0115 | – | – | – | –
x1 = 0.413 | – | 680 | 439 | 284 | 136
x1 = 0.508 | – | 647 | 426 | – | 132
x1 = 0.537 | 0.0248 | – | – | – | –
x1 = 0.763 | 0.0489 | 478 | 318 | 210 | 106
x1 = 1 | 0.147 | 187 | 137 | 104 | 62
